Target: Apolipoprotein B-100 (Homo sapiens, UniProt P04114)
Experiment: Inhibition of apolipoprotein B (apoB) secreted by human hepatoma cells (Hep G2) […]

Sequence of Apolipoprotein B-100 (P04114 whole entry C1422Y): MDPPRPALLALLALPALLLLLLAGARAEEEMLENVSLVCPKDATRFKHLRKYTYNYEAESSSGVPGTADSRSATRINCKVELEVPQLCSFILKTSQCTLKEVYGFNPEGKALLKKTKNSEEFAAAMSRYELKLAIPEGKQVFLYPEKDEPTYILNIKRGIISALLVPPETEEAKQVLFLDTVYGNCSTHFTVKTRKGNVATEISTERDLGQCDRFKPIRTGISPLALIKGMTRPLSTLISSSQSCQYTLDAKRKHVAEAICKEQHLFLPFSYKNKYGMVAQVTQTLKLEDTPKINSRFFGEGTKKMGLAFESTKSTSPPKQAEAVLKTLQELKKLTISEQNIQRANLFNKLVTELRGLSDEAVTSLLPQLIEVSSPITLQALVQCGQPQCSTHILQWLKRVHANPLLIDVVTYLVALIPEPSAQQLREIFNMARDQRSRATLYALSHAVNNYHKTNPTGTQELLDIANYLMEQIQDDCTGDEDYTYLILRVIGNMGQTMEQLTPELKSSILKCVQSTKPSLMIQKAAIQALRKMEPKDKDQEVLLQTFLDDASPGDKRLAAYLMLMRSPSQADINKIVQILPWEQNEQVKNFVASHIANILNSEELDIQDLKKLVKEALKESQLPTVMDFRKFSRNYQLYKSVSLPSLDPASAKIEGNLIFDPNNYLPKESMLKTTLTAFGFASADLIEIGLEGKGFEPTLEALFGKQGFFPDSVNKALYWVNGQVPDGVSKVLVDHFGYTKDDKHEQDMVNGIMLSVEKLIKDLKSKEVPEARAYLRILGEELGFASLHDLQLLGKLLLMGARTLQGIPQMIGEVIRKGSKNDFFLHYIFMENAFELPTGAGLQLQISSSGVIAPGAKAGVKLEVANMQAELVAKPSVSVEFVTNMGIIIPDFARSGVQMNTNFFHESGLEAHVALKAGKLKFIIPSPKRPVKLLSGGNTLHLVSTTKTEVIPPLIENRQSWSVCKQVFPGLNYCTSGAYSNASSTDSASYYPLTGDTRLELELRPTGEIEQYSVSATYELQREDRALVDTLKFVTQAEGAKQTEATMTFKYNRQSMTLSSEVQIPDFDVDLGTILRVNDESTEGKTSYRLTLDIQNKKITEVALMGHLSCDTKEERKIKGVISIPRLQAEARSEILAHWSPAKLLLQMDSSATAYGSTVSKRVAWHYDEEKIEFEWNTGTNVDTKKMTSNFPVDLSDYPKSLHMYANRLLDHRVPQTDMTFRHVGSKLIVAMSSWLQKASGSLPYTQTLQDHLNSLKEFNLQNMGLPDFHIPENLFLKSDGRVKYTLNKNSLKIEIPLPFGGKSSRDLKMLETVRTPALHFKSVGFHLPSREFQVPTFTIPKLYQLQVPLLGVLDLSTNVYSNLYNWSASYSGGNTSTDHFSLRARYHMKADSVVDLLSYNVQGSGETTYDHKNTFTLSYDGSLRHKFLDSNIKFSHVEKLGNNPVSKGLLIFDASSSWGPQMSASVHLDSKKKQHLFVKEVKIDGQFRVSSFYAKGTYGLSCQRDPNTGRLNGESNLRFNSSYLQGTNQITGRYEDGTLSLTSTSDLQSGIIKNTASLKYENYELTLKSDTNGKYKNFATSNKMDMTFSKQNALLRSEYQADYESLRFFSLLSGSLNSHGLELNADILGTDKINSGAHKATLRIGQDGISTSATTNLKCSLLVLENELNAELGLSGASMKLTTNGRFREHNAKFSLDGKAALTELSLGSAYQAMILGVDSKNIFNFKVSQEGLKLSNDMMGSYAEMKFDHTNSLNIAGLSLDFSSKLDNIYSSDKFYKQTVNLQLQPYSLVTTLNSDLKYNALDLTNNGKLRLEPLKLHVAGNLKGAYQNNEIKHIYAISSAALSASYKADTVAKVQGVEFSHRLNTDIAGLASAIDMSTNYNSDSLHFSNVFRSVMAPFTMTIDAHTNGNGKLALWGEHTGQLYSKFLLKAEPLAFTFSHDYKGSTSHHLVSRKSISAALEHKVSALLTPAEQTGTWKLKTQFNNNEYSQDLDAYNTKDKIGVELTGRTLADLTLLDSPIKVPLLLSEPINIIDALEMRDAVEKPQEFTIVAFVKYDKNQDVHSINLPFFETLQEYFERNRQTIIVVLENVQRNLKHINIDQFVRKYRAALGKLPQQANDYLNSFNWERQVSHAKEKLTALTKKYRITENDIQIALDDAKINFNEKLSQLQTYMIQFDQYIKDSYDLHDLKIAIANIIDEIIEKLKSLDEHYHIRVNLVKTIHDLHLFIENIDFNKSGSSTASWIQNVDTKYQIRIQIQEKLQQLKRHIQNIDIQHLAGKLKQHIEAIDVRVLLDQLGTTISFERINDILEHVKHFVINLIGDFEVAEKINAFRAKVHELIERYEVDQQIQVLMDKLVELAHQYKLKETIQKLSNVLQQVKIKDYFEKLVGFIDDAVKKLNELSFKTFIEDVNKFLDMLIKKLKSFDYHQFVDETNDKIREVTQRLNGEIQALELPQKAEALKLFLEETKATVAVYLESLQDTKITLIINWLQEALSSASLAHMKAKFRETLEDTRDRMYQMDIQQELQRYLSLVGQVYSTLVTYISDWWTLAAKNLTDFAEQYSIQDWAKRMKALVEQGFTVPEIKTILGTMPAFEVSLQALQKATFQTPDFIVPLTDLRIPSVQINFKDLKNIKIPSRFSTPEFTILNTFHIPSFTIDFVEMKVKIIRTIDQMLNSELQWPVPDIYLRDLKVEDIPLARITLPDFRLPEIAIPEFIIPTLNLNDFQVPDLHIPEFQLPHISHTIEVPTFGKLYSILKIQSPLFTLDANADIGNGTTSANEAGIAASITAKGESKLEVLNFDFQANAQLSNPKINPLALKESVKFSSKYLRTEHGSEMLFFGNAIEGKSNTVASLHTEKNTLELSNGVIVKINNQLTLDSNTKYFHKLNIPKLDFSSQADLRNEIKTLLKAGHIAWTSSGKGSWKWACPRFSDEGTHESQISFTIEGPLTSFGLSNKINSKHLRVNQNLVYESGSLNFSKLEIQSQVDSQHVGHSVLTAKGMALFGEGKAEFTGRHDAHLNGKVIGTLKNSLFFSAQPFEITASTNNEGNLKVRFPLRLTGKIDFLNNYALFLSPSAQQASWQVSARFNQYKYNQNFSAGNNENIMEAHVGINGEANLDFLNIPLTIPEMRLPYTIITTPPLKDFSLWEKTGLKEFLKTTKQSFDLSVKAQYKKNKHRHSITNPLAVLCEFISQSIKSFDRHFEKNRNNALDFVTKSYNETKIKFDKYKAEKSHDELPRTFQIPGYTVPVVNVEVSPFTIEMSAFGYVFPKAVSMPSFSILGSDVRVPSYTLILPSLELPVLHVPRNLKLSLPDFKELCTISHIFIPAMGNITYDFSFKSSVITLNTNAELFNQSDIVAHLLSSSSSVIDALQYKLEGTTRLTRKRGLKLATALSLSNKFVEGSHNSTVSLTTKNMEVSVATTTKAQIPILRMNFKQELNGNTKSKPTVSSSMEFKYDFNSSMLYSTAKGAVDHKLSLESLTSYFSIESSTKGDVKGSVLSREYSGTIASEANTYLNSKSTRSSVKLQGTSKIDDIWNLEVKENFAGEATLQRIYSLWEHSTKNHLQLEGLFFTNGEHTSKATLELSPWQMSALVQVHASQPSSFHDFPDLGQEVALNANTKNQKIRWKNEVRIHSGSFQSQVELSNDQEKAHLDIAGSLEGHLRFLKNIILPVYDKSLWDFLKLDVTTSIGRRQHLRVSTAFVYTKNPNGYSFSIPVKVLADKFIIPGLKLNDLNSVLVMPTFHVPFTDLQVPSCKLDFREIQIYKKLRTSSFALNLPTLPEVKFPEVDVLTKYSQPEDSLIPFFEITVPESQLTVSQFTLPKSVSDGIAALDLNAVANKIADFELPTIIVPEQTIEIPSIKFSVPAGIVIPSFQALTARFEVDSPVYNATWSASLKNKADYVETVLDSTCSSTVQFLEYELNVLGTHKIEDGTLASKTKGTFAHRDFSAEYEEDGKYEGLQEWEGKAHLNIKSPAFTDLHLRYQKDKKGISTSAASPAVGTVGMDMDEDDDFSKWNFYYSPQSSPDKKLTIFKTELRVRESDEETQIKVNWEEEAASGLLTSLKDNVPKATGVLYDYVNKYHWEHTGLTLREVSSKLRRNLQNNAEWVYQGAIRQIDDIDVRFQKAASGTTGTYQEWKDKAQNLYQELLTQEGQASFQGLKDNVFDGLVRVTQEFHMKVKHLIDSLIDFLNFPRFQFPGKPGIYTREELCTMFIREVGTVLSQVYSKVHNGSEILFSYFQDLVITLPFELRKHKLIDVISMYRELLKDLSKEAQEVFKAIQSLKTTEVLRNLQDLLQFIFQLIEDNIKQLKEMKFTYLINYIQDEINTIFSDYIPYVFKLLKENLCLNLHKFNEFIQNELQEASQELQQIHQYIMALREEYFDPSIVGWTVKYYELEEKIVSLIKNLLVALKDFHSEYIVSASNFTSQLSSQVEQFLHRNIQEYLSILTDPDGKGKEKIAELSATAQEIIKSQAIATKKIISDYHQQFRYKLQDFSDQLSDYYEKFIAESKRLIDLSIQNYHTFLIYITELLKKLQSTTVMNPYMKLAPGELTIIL

SMILES	IC50 [nM]
COc1cccc(C(=O)Nc2ccc3c(c2)CC(NS(=O)(=O)c2ccccc2)C3)c1-c1ccc(Cl)cc1 (configuration not stated) [4'-Chloro-6-methoxy-biphenyl-2-carboxylic acid (2-benzenesulfonylamino-indan-5-yl)-amide]	2
COc1cccc(C(=O)Nc2ccc3c(c2)CC(NS(C)(=O)=O)C3)c1-c1ccc(Cl)cc1 (configuration not stated) [4'-Chloro-6-methoxy-biphenyl-2-carboxylic acid (2-methanesulfonylamino-indan-5-yl)-amide]	15
Cc1cccc(C(=O)Nc2ccc3c(c2)CC(NS(=O)(=O)c2ccccc2)C3)c1-c1ccc(Cl)cc1 (configuration not stated) [4'-Chloro-6-methyl-biphenyl-2-carboxylic acid (2-benzenesulfonylamino-indan-5-yl)-amide]	2.4
Cc1cccc(C(=O)Nc2ccc3c(c2)CC(NS(C)(=O)=O)C3)c1-c1ccc(Cl)cc1 (configuration not stated) [4'-Chloro-6-methyl-biphenyl-2-carboxylic acid (2-methanesulfonylamino-indan-5-yl)-amide]	6.6
Cc1cccc(C(=O)Nc2ccc3c(c2)CCC(NS(C)(=O)=O)CC3)c1-c1ccc(Cl)cc1 (configuration not stated) [4'-Chloro-6-methyl-biphenyl-2-carboxylic acid (7-methanesulfonylamino-6,7,8,9-tetrahydro-5H-benzocyclohepten-2-yl)-amide]	5
Cc1cccc(C(=O)Nc2ccc3c(c2)CC(CNS(C)(=O)=O)C3)c1-c1ccc(Cl)cc1 (configuration not stated) [4'-Chloro-6-methyl-biphenyl-2-carboxylic acid [2-(methanesulfonylamino-methyl)-indan-5-yl]-amide]	16
Cc1cccc(C(=O)Nc2ccc3c(c2)CC(NS(=O)(=O)c2cccs2)C3)c1-c1ccc(Cl)cc1 (configuration not stated) [4'-Chloro-6-methyl-biphenyl-2-carboxylic acid [2-(thiophene-2-sulfonylamino)-indan-5-yl]-amide]	3
Cc1cccc(C(=O)Nc2ccc3c(c2)CC(NS(=O)(=O)c2ccccc2)C3)c1-c1ccc(C#N)cc1 (configuration not stated) [4'-Cyano-6-methyl-biphenyl-2-carboxylic acid (2-benzenesulfonylamino-indan-5-yl)-amide]	5.5
Cc1cccc(C(=O)Nc2ccc3c(c2)CC(NS(=O)(=O)c2ccccc2)C3)c1-c1ccc(F)cc1 (configuration not stated) [4'-Fluoro-6-methyl-biphenyl-2-carboxylic acid (2-benzenesulfonylamino-indan-5-yl)-amide]	1.2
Cc1cccc(C(=O)Nc2ccc3c(c2)CC(NS(C)(=O)=O)C3)c1-c1ccc(F)cc1 (configuration not stated) [4'-Fluoro-6-methyl-biphenyl-2-carboxylic acid (2-methanesulfonylamino-indan-5-yl)-amide]	8.3
Cc1cccc(C(=O)Nc2ccc3c(c2)CC(NS(=O)(=O)c2cccs2)C3)c1-c1ccc(F)cc1 (configuration not stated) [4'-Fluoro-6-methyl-biphenyl-2-carboxylic acid [2-(thiophene-2-sulfonylamino)-indan-5-yl]-amide]	1.4
CC(=O)NC1Cc2ccc(NC(=O)c3ccccc3-c3ccc(C(F)(F)F)cc3)cc2C1 (configuration not stated) [4'-Trifluoromethyl-biphenyl-2-carboxylic acid (2-acetylamino-indan-5-yl)-amide]	120
O=C(Nc1ccc2c(c1)CC(NS(=O)(=O)c1ccccc1)C2)c1ccccc1-c1ccc(C(F)(F)F)cc1 (configuration not stated) [4'-Trifluoromethyl-biphenyl-2-carboxylic acid (2-benzenesulfonylamino-indan-5-yl)-amide]	1.3
O=C(Nc1ccc2c(c1)C[C@@H](NS(=O)(=O)c1ccccc1)C2)c1ccccc1-c1ccc(C(F)(F)F)cc1 [4'-Trifluoromethyl-biphenyl-2-carboxylic acid (2-benzenesulfonylamino-indan-5-yl)-amide]	42
O=C(NC1Cc2ccc(NC(=O)c3ccccc3-c3ccc(C(F)(F)F)cc3)cc2C1)c1ccccc1 (configuration not stated) [4'-Trifluoromethyl-biphenyl-2-carboxylic acid (2-benzoylamino-indan-5-yl)-amide]	270
O=C(Nc1ccc2c(c1)CC(NCc1ccccc1)C2)c1ccccc1-c1ccc(C(F)(F)F)cc1 (configuration not stated) [4'-Trifluoromethyl-biphenyl-2-carboxylic acid (2-benzylamino-indan-5-yl)-amide]	340
CS(=O)(=O)NC1Cc2ccc(NC(=O)c3ccccc3-c3ccc(C(F)(F)F)cc3)cc2C1 (configuration not stated) [4'-Trifluoromethyl-biphenyl-2-carboxylic acid (2-methanesulfonylamino-indan-5-yl)-amide]	60
CN(C)C(=O)NC1Cc2ccc(NC(=O)c3ccccc3-c3ccc(C(F)(F)F)cc3)cc2C1 (configuration not stated) [4'-Trifluoromethyl-biphenyl-2-carboxylic acid [2-(3,3-dimethyl-ureido)-indan-5-yl]-amide]	120
Cc1cc(C)c(-c2ccc(C(F)(F)F)cc2)c(C(=O)Nc2ccc3c(c2)C[C@@H](NS(=O)(=O)c2cccs2)C3)c1 [4,6-Dimethyl-4'-trifluoromethyl-biphenyl-2-carboxylic acid [2-(thiophene-2-sulfonylamino)-indan-5-yl]-amide]	2.6
Cc1cc(C)c(-c2ccc(C(F)(F)F)cc2)c(C(=O)Nc2ccc3c(c2)C[C@H](NS(=O)(=O)c2cccs2)C3)c1 [4,6-Dimethyl-4'-trifluoromethyl-biphenyl-2-carboxylic acid [2-(thiophene-2-sulfonylamino)-indan-5-yl]-amide]	1
COC(=O)N1CCN([C@@H]2Cc3ccc(NC(=O)c4cccc(C)c4-c4ccc(C(F)(F)F)cc4)cc3C2)CC1 [4-{5-[(6-Methyl-4'-trifluoromethyl-biphenyl-2-carbonyl)-amino]-indan-2-yl}-piperazine-1-carboxylic acid methyl ester]	43

Other lines, results leading:

IC50 [nM]	SMILES
1.8	COC(=O)N1CCN([C@H]2Cc3ccc(NC(=O)c4cccc(C)c4-c4ccc(C(F)(F)F)cc4)cc3C2)CC1 [4-{5-[(6-Methyl-4'-trifluoromethyl-biphenyl-2-carbonyl)-amino]-indan-2-yl}-piperazine-1-carboxylic acid methyl ester]
2.5	Cc1ccc(-c2c(C)cccc2C(=O)Nc2ccc3c(c2)CC(NS(=O)(=O)c2ccccc2)C3)cc1 (configuration not stated) [6,4'-Dimethyl-biphenyl-2-carboxylic acid (2-benzenesulfonylamino-indan-5-yl)-amide]
8.8	Cc1cccc(C(=O)Nc2ccc3c(c2)C[C@@H](NS(C)(=O)=O)C3)c1-c1ccc(C(F)(F)F)cc1 [6-Methyl-4'-trifluoromethyl-biphenyl-2-carboxylic acid (2-methanesulfonylamino-indan-5-yl)-amide]
1.8	Cc1cccc(C(=O)Nc2ccc3c(c2)C[C@H](NS(C)(=O)=O)C3)c1-c1ccc(C(F)(F)F)cc1 [6-Methyl-4'-trifluoromethyl-biphenyl-2-carboxylic acid (2-methanesulfonylamino-indan-5-yl)-amide]
2.3	Cc1cccc(C(=O)Nc2ccc3c(c2)CCC(NS(C)(=O)=O)CC3)c1-c1ccc(C(F)(F)F)cc1 (configuration not stated) [6-Methyl-4'-trifluoromethyl-biphenyl-2-carboxylic acid (7-methanesulfonylamino-6,7,8,9-tetrahydro-5H-benzocyclohepten-2-yl)-amide]
6.5	Cc1cccc(C(=O)Nc2ccc3c(c2)CC(CNS(C)(=O)=O)C3)c1-c1ccc(C(F)(F)F)cc1 (configuration not stated) [6-Methyl-4'-trifluoromethyl-biphenyl-2-carboxylic acid [2-(methanesulfonylamino-methyl)-indan-5-yl]-amide]
0.9	Cc1cccc(C(=O)Nc2ccc3c(c2)C[C@H](NS(=O)(=O)c2cccs2)C3)c1-c1ccc(C(F)(F)F)cc1 [6-Methyl-4'-trifluoromethyl-biphenyl-2-carboxylic acid [2-(thiophene-2-sulfonylamino)-indan-5-yl]-amide]
1.6	Cc1cccc(C(=O)Nc2ccc3c(c2)CCC(NS(=O)(=O)c2cccs2)CC3)c1-c1ccc(C(F)(F)F)cc1 (configuration not stated) [6-Methyl-4'-trifluoromethyl-biphenyl-2-carboxylic acid [7-(thiophene-2-sulfonylamino)-6,7,8,9-tetrahydro-5H-benzocyclohepten-2-yl]-amide]
1.9	Cc1cccc(C(=O)Nc2ccc3c(c2)CC(CNS(=O)(=O)c2cccs2)C3)c1-c1ccc(C(F)(F)F)cc1 (configuration not stated) [6-Methyl-4'-trifluoromethyl-biphenyl-2-carboxylic acid {2-[(thiophene-2-sulfonylamino)-methyl]-indan-5-yl}-amide]
10	COC(=O)NCCC1Cc2ccc(NC(=O)c3cccc(C)c3-c3ccc(C(F)(F)F)cc3)cc2C1 (configuration not stated) [(2-{5-[(6-Methyl-4'-trifluoromethyl-biphenyl-2-carbonyl)-amino]-indan-2-yl}-ethyl)-carbamic acid methyl ester]
6.4	COC(=O)N[C@@H]1Cc2ccc(NC(=O)c3cccc(C)c3-c3ccc(C(F)(F)F)cc3)cc2C1 [(R)-methyl 5-(6-methyl-4'-(trifluoromethyl)biphenyl-2-ylcarboxamido)-2,3-dihydro-1H-inden-2-ylcarbamate]
1.7	Cc1cccc(C(=O)Nc2ccc3c(c2)C[C@@H](NCc2ccccn2)C3)c1-c1ccc(C(F)(F)F)cc1 [(S)-6-methyl-N-(2-(pyridin-2-ylmethylamino)-2,3-dihydro-1H-inden-5-yl)-4'-(trifluoromethyl)biphenyl-2-carboxamide]
12	O=C(Nc1ccc2c(c1)CC(NS(=O)(=O)c1ccccc1)C2)c1ccccc1-c1ccccc1 (configuration not stated) [Biphenyl-2-carboxylic acid (2-benzenesulfonylamino-indan-5-yl)-amide]
2	COC(=O)NC1CCc2ccc(NC(=O)c3cccc(C)c3-c3ccc(Cl)cc3)cc2CC1 (configuration not stated) [{2-[(4'-Chloro-6-methyl-biphenyl-2-carbonyl)-amino]-6,7,8,9-tetrahydro-5H-benzocyclohepten-7-yl}-carbamic acid methyl ester]
2.4	COC(=O)NC1CCc2ccc(NC(=O)c3cc(C)cc(C)c3-c3ccc(C(F)(F)F)cc3)cc2CC1 (configuration not stated) [{2-[(4,6-Dimethyl-4'-trifluoromethyl-biphenyl-2-carbonyl)-amino]-6,7,8,9-tetrahydro-5H-benzocyclohepten-7-yl}-carbamic acid methyl ester]
1.6	COC(=O)NC1CCc2ccc(NC(=O)c3cccc(C)c3-c3ccc(C(F)(F)F)cc3)cc2CC1 (configuration not stated) [{2-[(6-Methyl-4'-trifluoromethyl-biphenyl-2-carbonyl)-amino]-6,7,8,9-tetrahydro-5H-benzocyclohepten-7-yl}-carbamic acid methyl ester]
